# Patent US20190352276A1, “INHIBITORS OF BRUTON'S TYROSINE KINASE” (Joint Stock Company "Biocad", priority 2016, published 2019)
# Key:
# [1] = test system: HepG2 cells (hepatocellular carcinoma); experiment: General cytotoxicity on HepG2 cells (CC50; therapeutic index CC50 HepG2/IC50 Mino); assay type: cell-based; settings: Table 10; therapeutic index
# Method in brief: (§1)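 Alamar Blue viability after 72 h exposure to compounds (final 200 μM–4 μM) gave CC50; HepG2 plated 2*10^4/well in DMEM 24 h beforehand. Therapeutic index expressed as ratio of HepG2 CC50 to Mino antiproliferative IC50.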
# [2] = as above; assay type: cell-based; settings: human, HepG2 cells (hepatocellular carcinoma); Table 10; 72 hours, Alamar Blue; average of several tests
# Method in brief: as §1
# [3] = target: T1, recombinant Btk kinase enzyme (Homo sapiens, UniProt Q06187); experiment: In vitro inhibition of Btk kinase activity (ADP-Glo); assay type: biochemical; settings: Table 8; ADP-Glo; read-out: IC50 kinase BTK
# T1 construct: purchased SignalChem B10-10H
# Description: To assess Btk kinase activity described herein, SignalChem kinase system was used. Btk kinase activity was determined in the reaction between recombinant Btk kinase enzyme (SignalChem #B10-10H) and Poly (4:1 Glu, Tyr) peptide substrate in the presence of the inhibitor.
# Staurosporine (Abcam Biochemicals, ab146588) was used as a reference inhibitor and 0.1% DMSO in the reaction buffer—as a negative control. The solution of 0.5 mg/mL peptide substrate and 50 &M ATP in the same buffer were added; the solution was incubated for 180 minutes at 37° C. To detect the amount of ATP taken up during the kinase reaction, the equivalent amount of ADP (from the ADP Glo Detection Kit (Promega, #V9101)) was used according to the protocol. The reaction mixture was equilibrated to room temperature. 25 µL of ADP-Glo Reagent were added into each well; the plate was incubated for 40 minutes. 50 μL of Kinase Detection Reagent were added; the plate was incubated for 30 minutes. The luminescence was measured with multimode plate reader (Tecan Infinite M200Pro, Switzerland). IC50 values were calculated using Magellan 7.2 software (Tecan, Switzerland) approximating experimental points by four-parameter logistic model with the optimization by Levenberg-Marquardt.
# [4] = test system: Mino (mantle cell lymphoma); experiment: Antiproliferative activity, Mino cells (Alamar Blue); assay type: cell-based; settings: Homo sapiens, Table 10, 72 h, average of several tests
# Method in brief: (§2)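 Readout: Alamar Blue fluorescence (540 nm excitation, 590 nm emission) after 14-16 h reagent incubation, following 72 h compound exposure at 37 °C. About 3*10^4 cells/well were grown in 10% FBS RPMI-1640. IC50 values were fitted by a four-parameter logistic model.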
# [5] = Stability in human blood plasma; settings: 10 μM in pooled human blood plasma, incubated 4 hours at 37° C.
# Description: To assess the blood plasma stability of the drug candidates, we used pooled human blood plasma taken from ten healthy donors. The initial solution (10 Mm in DMSO) was diluted with pooled blood plasma to 10 μM (test solution). The test solution had been incubated for 4 hours in a dry block heater at 37° C. We determined peak areas of the compounds corresponding to the start of the test (before incubating) and the end of the test (after incubating in a dry block heater at 37° C.) by HPLC using Agilent1200 chromatograph (Agilent, USA) with preliminary protein precipitation with acetonitrile. We used gradient elution (1 mL/min flow rate). We determined amount of substance in the sample in % after incubation.
# We evaluated the stability of the compounds.
# [6] = test system: Z-138 (mantle cell lymphoma); experiment: Antiproliferative activity, Z-138 cells (Alamar Blue); assay type: cell-based; settings: Homo sapiens, Table 10, 72 h, average of several tests
# Method in brief: as §2
# [7] = Permeability through the monolayer of Caco-2 cells; assay type: in vitro ADME; settings: human; for Papp A→B at 2 h, 10 μM / Papp B→A at 2 h, 10 μM: 2 h at 37° C.; for efflux ratio at 2 h, 10 μM: read-out: efflux (Papp B-A/Papp A-B)
# Method in brief: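 Bidirectional transport measured over 7200 s with 10 μM compound, using an apical buffer at pH 6.5 and a basolateral Hanks/HEPES/glucose buffer at pH 7.4 containing 1% BSA. Monolayers were 21-day Caco-2 cultures verified with Lucifer Yellow. Chamber concentrations quantified chromatographically to derive Papp in both directions and their B-A/A-B efflux ratio.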
# [8] = test system: DOHH2 (follicular lymphoma); experiment: Antiproliferative activity, DOHH2 cells (Alamar Blue); assay type: cell-based; settings: Homo sapiens, DOHH-2, Table 10, 72 h, average of several tests
# Description: Antiproliferative activity of BTK inhibitors was measured in cell-based bioassay on B-cells cultures: Mino (mantle cell lymphoma, ATCC® CRL-3000™), Z-138 (mantle cell lymphoma, ATCC® CRL-3001™) and DOHH2 (follicular lymphoma, Creative Bioarray CSC-C0219) using cell viability reagent Alamar Blue (Invitrogen, #DAL 1100). Cells were cultured in 10% FB S-supplemented (HyClone, #SH3008803/Gibco, #16140-071) RPMI-1640 (PanEco, #S330p) for at least 1 passage after thawing, washed with PBS and passaged in 96-well culture plates (Corning, #3599) with growth medium with 10% FBS (HyClone, #SH3008803/Gibco, #16140-071) and antibiotic (50 μg/ml of gentamicin (Biolot, #1.3.16))≈3*10^4 cells in 50 μl of medium per well.
# The compounds were dissolved in DMSO and diluted with the assay medium to final concentrations ranging from […]. 150 μl of each diluted compound were then added to each well (final concentration of DMSO was less than 1%) and incubated at 37° C. in an incubator under 5% of CO2 for 72 h. After incubation, 20 μl of Alamar Blue reagent (Invitrogen, #DAL1100) were added to each well. The plates were shaked on an orbital shaker (Biosan, Latvia) and then incubated for 14-16 hours at 37° C. in the incubator.
# The number of living cells were estimated, measuring the fluorescence signal at the excitation wavelength (REx) of 540 nm and the emission wavelength (λEm) of 590 nm on a microplate reader (Tecan Infinite M200Pro, Switzerland).
# For each compound, IC50 was calculated using Magellan 7.2 software (Tecan, Switzerland) approximating experimental points by four-parameter logistic model with the optimization by Levenberg-Marquardt.
# [9] = Chemical stability in artificial gastric fluid (SGF without enzymes); settings: 10 μM in SGF without enzymes, pH=1.4, 37° C.
# T1 sequence (Q06187 whole entry): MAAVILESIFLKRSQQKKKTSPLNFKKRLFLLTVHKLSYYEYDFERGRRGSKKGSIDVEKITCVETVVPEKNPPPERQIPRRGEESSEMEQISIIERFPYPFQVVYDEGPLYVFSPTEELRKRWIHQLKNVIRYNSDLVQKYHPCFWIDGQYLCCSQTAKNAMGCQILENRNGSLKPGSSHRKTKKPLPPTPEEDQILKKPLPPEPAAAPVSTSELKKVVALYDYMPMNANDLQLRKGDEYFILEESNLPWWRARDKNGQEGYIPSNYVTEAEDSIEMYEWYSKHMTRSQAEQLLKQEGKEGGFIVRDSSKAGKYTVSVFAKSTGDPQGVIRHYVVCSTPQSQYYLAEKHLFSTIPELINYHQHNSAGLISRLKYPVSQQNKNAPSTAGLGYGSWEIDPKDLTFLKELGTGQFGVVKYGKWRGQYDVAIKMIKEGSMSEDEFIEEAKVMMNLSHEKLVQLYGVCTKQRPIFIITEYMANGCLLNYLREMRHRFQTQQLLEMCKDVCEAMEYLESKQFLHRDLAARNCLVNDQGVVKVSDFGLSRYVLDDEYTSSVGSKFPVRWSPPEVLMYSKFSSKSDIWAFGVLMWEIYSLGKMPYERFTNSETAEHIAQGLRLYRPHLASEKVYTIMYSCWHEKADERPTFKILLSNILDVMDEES
structure (smiles),measurement,setting,value
"C=CC(=O)N1CCC[C@@H](n2nc(-c3ccc(Oc4ccncc4C(N)=O)cc3)c3cncc(Cl)c32)C1 [BCD-BTK-203, (R)-4-(4-(1-(1-acryloylpiperidin-3-yl)-7-chloro-1H-pyrazolo[4,3-c]pyridin-3-yl)phenoxy)nicotinamide]",CC50 (HepG2)/IC50 (Mino),[1],4.55
same,CC50 at 72 h,[2],61.9 µM
same,IC50,[3],1.1 µM
same,IC50,[4],13.6 µM
same,"Amount of substance in the sample, % (stability in human blood plasma)",[5],84.7%
same,IC50,[6],16 µM
same,"Papp A→B at 2 h, 10 μM",[7],9.31 ×10⁻⁶ cm/s
same,"Papp B→A at 2 h, 10 μM",[7],8.4 ×10⁻⁶ cm/s
same,"efflux ratio at 2 h, 10 μM",[7],0.9
same,IC50,[8],14 µM
"C=CC(=O)N1CCC[C@@H](n2nc(-c3ccc(C(=O)Nc4ccc(F)cn4)cc3)c3c(N)ncc(Cl)c32)C1 [BCD-BTK-237, 4-{4-amino-7-chloro-1-[(3R)-1-(prop-2-enoyl)piperidin-3-yl]-1H-pyrazolo[4,3-c]pyridin-3-yl}-N-(5-fluoropyridin-2-yl)benzamide]",CC50 (HepG2)/IC50 (Mino),[1],4.54
same,CC50 at 72 h,[2],28.4 µM
same,IC50,[3],0.0126 µM
same,IC50,[4],6.25 µM
same,IC50,[6],6.99 µM
same,"Papp A→B at 2 h, 10 μM",[7],6.9 ×10⁻⁶ cm/s
same,"Papp B→A at 2 h, 10 μM",[7],3.5 ×10⁻⁶ cm/s
same,"efflux ratio at 2 h, 10 μM",[7],0.5
same,IC50,[8],3.25 µM
"C=CC(=O)N1CC[C@@H](n2nc(-c3ccc(Oc4ccncc4)cc3)c3cncc(Cl)c32)C1 [BCD-BTK-272, (R)-1-(3-(7-chloro-3-(4-(pyridin-4-yloxy)phenyl)-1H-pyrazolo[4,3-c]pyridin-1-yl)pyrrolidin-1-yl)prop-2-en-1-one]",CC50 (HepG2)/IC50 (Mino),[1],2.57
same,CC50 at 72 h,[2],17.6 µM
same,Amount of substance in the sample in % (chemical stability),[9],100%
same,IC50,[3],0.0548 µM
same,IC50,[4],6.83 µM
same,IC50,[6],14.9 µM
same,"Papp A→B at 2 h, 10 μM",[7],6.3 ×10⁻⁶ cm/s
same,"Papp B→A at 2 h, 10 μM",[7],1.1 ×10⁻⁶ cm/s
same,"efflux ratio at 2 h, 10 μM",[7],0.18
same,IC50,[8],5.23 µM
"C=CC(=O)N1CCC[C@@H](n2nc(-c3ccc(Oc4cccnc4C#N)cc3)c3cncc(Cl)c32)C1 [BCD-BTK-218, 3-(4-{7-chloro-1-[1-(prop-2-enoyl)piperidin-3-yl]-1H-pyrazolo[4,3-c]pyridin-3-yl}phenoxy)pyridine-2-carbonitrile]",CC50 (HepG2)/IC50 (Mino),[1],23.92
same,CC50 at 72 h,[2],26.2 µM
same,IC50,[3],0.0555 µM
same,IC50,[4],1.1 µM
same,"Amount of substance in the sample, % (stability in human blood plasma)",[5],92.0%
same,IC50,[6],8.58 µM
same,"Papp A→B at 2 h, 10 μM",[7],20.2 ×10⁻⁶ cm/s
same,"Papp B→A at 2 h, 10 μM",[7],17.4 ×10⁻⁶ cm/s
same,"efflux ratio at 2 h, 10 μM",[7],0.86
same,IC50,[8],3.55 µM
"C=CC(=O)N1CCC[C@@H](n2nc(-c3ccc(C(=O)Nc4cc(C(F)(F)CC)ccn4)cc3)c3cncc(Cl)c32)C1 [BCD-BTK-215, (R)-4-(1-(1-acryloylpiperidin-3-yl)-7-chloro-1H-pyrazolo[4,3-c]pyridin-3-yl)-N-(4-(1,1-difluoropropyl)pyridin-2-yl)benzamide]",CC50 (HepG2)/IC50 (Mino),[1],>34.11
same,CC50 at 72 h,[2],> 100 µM
same,IC50,[3],0.0358 µM
same,IC50,[4],2.93 µM
same,IC50,[6],8 µM
same,IC50,[8],> 100 µM
"C=CC(=O)N1CCC[C@@H](n2nc(-c3ccc(C(=O)Nc4ccccn4)cc3)c3cncc(C#N)c32)C1 [BCD-BTK-228, (R)-4-(1-(1-acryloylpiperidin-3-yl)-7-cyano-1H-pyrazolo[4,3-c]pyridin-3-yl)-N-(pyridin-2-yl)benzamide]",Amount of substance in the sample in % (chemical stability),[9],99.9%
same,IC50,[3],0.0389 µM
same,"Amount of substance in the sample, % (stability in human blood plasma)",[5],85.2%
same,"Papp A→B at 2 h, 10 μM",[7],8 ×10⁻⁶ cm/s
same,"Papp B→A at 2 h, 10 μM",[7],1.4 ×10⁻⁶ cm/s
same,"efflux ratio at 2 h, 10 μM",[7],0.17
"C=CC(=O)N1CCC[C@@H](n2nc(-c3ccc(C(=O)Nc4ncccc4F)cc3)c3cncc(C#N)c32)C1 [BCD-BTK-235, 4-{7-cyano-1-[(3R)-1-(prop-2-enoyl)piperidin-3-yl]-1H-pyrazolo[4,3-c]pyridin-3-yl}-N-(3-fluoropyridin-2-yl)benzamide]",CC50 (HepG2)/IC50 (Mino),[1],>5.37
same,CC50 at 72 h,[2],> 100 µM
same,Amount of substance in the sample in % (chemical stability),[9],100%
same,IC50,[3],0.0139 µM
same,IC50,[4],18.6 µM
same,IC50,[6],> 100 µM
same,IC50,[8],> 100 µM
"CC#CC(=O)N1CCC[C@@H](n2nc(-c3ccc(C(=O)Nc4ccccn4)cc3)c3c(N)ncc(Cl)c32)C1 [BCD-BTK-295, (R)-4-(4-amino-1-(1-(but-2-ynoyl)piperidin-3-yl)-7-chloro-1H-pyrazolo[4,3-c]pyridin-3-yl)-N-(pyridin-2-yl)benzamide]",CC50 (HepG2)/IC50 (Mino),[1],16.23
same,CC50 at 72 h,[2],32.5 µM
same,IC50,[3],0.0652 µM
same,IC50,[4],2 µM
same,IC50,[6],1.19 µM
same,IC50,[8],1.94 µM
"C=CC(=O)N1CCC[C@@H](n2nc(-c3ccc(C(=O)Nc4ccccn4)cc3)c3c(N)ncc(Cl)c32)C1 [BCD-BTK-238, 4-{4-amino-7-chloro-1-[(3R)-1-(prop-2-enoyl)piperidin-3-yl]-1H-pyrazolo[4,3-c]pyridin-3-yl}-N-(pyridin-2-yl)benzamide]",CC50 (HepG2)/IC50 (Mino),[1],2.34
same,CC50 at 72 h,[2],24.8 µM
same,Amount of substance in the sample in % (chemical stability),[9],100%
same,IC50,[3],0.0189 µM
same,IC50,[4],10.6 µM
same,IC50,[6],9.44 µM
same,"Papp A→B at 2 h, 10 μM",[7],6.75 ×10⁻⁶ cm/s
same,"Papp B→A at 2 h, 10 μM",[7],4.78 ×10⁻⁶ cm/s
same,"efflux ratio at 2 h, 10 μM",[7],0.71
same,IC50,[8],4.05 µM
"C=CC(=O)N1CCC[C@@H](n2nc(-c3ccc(C(=O)Nc4cc(C(F)(F)CCC)ccn4)cc3)c3cncc(F)c32)C1 [BCD-BTK-247, (R)-4-(1-(1-acryloylpiperidin-3-yl)-7-fluoro-1H-pyrazolo[4,3-c]pyridin-3-yl)-N-(4-(1,1-difluorobutyl)pyridin-2-yl)benzamide]",CC50 (HepG2)/IC50 (Mino),[1],>17.21
same,CC50 at 72 h,[2],> 100 µM
same,IC50,[3],0.0147 µM
same,IC50,[4],5.81 µM
same,IC50,[6],> 50 µM
same,IC50,[8],> 100 µM
"C=CC(=O)N1CCC[C@@H](n2nc(-c3ccc(C(=O)Nc4ncccc4F)cc3)c3c(N)ncc(Cl)c32)C1 [BCD-BTK-233, (R)-4-(1-(1-acryloylpiperidin-3-yl)-4-amino-7-chloro-1H-pyrazolo[4,3-c]pyridin-3-yl)-N-(3-fluoropyridin-2-yl)benzamide]",CC50 (HepG2)/IC50 (Mino),[1],3.39
same,CC50 at 72 h,[2],18.4 µM
same,Amount of substance in the sample in % (chemical stability),[9],100%
same,IC50,[3],0.0115 µM
same,IC50,[4],5.44 µM
same,IC50,[6],4.11 µM
same,IC50,[8],1.11 µM
